Assay results: patent EP1884568A1, “METHOD FOR IDENTIFICATION OF COMPOUND HAVING ANTIDEPRESSANT EFFECT” (Daiichi Sankyo Company, Limited, priority 2005, dated 2006)

Target: T1, ph01207 (Homo sapiens, UniProt O60241, DEL308-362)
T1 construct: containing an ORF that encodes 1518 amino acid residues; expressed in transfected cells; host or cells: CHO-K1 (clone ph01207 #3F8-17)
Experiment: Inhibition of the CCK-8S response (intracellular Ca2+), ph01207 #3F8-17 cell line
Format: cell-based
Settings: for response of ph01207 #3F8-17 cell line to the ligand (increase in intracellular Ca^2+ by CCK-8S): compound 10 µg/mL added 35 sec before 10 nM CCK-8S, buffer as control
Protocol: Identification of a compound that inhibits a response of ph01207 gene product to a ligand was carried out with a system for measuring a change in intracellular calcium concentration using ph01207 expressing cell line.
ph01207 expressing cell line was constructed as follows. […] Detection of the expression of introduced genes in cells was carried out by FCM analysis using anti-ph01207 antibody
As a result, a plurality of cell lines that stably expressed ph01207 was obtained. Identification of a compound was carried out using ph01207 #3F8-17 cell line that was one of clones among them.
As a ligand, CCK-8S (Peptide Institute) was used. 0.52 mg of CCK-8S (SEQ ID NO: 14) was dissolved in 4.5 mL of 1% NaHCO3 (Wako) to prepare a solution of 0.1 mM concentration. As a test compound, SoftFocus GPCR Target-Directed Library that is a compound library (BioFocus) was used. A 2 mg/mL DMSO solution of each compound was diluted 25-fold with PBS to adjust the concentration to 80 µg/mL for use.
Specifically, identification of a compound was carried out as follows. ph01207 #3F8-17 cell line was seeded in 96-well plates with a black wall surface and transparent bottom) at 3 × 10^4 cells /100 µL medium/well, and cultured at 37°C in the presence of 5% CO2. DMEM/F12 (supplied by Gibco) containing 10% fetal calf serum (supplied by Moregate) was used as the medium. On the next day, 20 µL of 6 × loading buffer was added to each well to allow for a reaction at 37°C for 1 h so as to allow cells to incorporate fluorescent dye contained in the loading buffer. The 6 × loading buffer was prepared by dissolving component A of the FLIPR Calcium 3 Assay Kit (Molecular Devices Corp.) with component B followed by adding probenecid (Sigma) to have a final concentration of 15 mM. After the reaction, CCK-8S (Peptide Institute) and a compound were added to measure a change in the fluorescence intensity time-dependently for each well for 80 sec. […] A time-dependent measurement of the change in the fluorescence intensity was carried out using FLEXstation (Molecular Devices Corp.).

T1 sequence (O60241 with tags, fused parts or gaps isoform O60241-3 DEL296-350): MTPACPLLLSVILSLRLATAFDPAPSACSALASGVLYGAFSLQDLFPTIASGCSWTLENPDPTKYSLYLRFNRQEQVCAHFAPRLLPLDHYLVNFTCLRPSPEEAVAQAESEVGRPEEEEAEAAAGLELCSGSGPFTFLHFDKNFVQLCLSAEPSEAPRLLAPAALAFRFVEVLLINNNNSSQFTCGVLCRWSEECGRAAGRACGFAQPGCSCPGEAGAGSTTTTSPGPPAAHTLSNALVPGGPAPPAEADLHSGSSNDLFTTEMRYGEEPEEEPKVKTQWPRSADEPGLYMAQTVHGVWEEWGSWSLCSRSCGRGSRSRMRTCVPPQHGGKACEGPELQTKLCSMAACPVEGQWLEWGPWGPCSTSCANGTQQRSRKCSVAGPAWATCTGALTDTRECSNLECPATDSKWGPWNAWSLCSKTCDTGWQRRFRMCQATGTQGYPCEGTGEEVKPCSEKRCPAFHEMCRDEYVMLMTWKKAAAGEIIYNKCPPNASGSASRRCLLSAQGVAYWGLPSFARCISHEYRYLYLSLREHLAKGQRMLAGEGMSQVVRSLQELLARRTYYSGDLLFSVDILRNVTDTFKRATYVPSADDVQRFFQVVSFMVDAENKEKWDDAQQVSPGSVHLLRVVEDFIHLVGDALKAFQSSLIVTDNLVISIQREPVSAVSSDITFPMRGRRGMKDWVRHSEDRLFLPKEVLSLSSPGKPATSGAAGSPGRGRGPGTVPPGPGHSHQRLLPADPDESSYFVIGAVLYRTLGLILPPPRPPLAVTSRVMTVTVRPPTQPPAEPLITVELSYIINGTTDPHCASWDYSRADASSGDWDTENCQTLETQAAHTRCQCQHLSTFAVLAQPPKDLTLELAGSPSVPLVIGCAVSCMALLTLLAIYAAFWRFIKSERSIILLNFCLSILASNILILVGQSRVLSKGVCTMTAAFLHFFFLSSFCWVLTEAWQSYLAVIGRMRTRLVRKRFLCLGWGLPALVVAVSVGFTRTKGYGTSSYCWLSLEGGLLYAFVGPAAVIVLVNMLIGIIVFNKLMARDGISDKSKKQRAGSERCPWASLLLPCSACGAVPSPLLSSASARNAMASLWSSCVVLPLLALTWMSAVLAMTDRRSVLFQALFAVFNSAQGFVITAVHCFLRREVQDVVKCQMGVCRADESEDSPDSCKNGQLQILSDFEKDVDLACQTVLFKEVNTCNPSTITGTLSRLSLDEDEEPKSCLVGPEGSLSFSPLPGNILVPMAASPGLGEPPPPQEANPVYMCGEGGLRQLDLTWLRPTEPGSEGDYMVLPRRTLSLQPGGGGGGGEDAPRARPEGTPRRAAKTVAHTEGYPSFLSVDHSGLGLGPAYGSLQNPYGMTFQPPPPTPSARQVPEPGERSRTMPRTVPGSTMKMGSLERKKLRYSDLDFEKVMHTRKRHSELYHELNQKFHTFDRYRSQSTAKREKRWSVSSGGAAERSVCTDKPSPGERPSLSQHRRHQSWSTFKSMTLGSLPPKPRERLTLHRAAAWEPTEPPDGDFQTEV

SMILES | change in fluorescence intensity on addition of the compound alone (ph01207 #3F8-17 cell line, compound 10 µg/mL added at 15 sec, before CCK-8S) | response of ph01207 #3F8-17 cell line to the ligand (increase in intracellular Ca^2+ by CCK-8S)
O=C(Nc1cccc(C(F)(F)F)c1)N1CCC2(C1)NCCc1c2[nH]c2ccccc12 (stereo not drawn) [compound A] | No change | 
O=C(Nc1ccccc1)N1CCC2(CC1)NCCc1c2[nH]c2ccccc12 [compound B] |  | inhibited
O=C(c1cnc2ccccc2c1)N1CCC2(CC1)OCc1ccccc1O2 [compound C] |  | inhibited
